Assay [1] relates to MOLM-13 cells. Put plainly: MOLM-13 96 Hour cell proliferation assay (Cell Titer-Glo). Format: cell-based. The conditions noted are these: Homo sapiens. The protocol: MOLM-13 96 Hour Cell Proliferation Assay
MOLM-13 (DSMZ) cells were seeded at 600 cells per well in a volume of 44 μL in a Greiner Bio-One CELLSTAR™ 384 Well Polystyrene Cell Culture clear bottom microplate in RPMI 1640 media containing 10% fetal bovine serum using a Multidrop Combi (ThermoFisher Scientific). Cells were incubated overnight at 37° C. in a humidified tissue culture incubator. To prevent evaporation or to reduce edge effect, add 50 μL or more H2O to an empty plate, cover, and place on top of the cell plates. The Mosquito® HTS Liquid Handler was used to make a compound/media intermediate plate by aliquoting 1 μL of compound from the initial compound dilution plate (concentrations ranging from 10.0 mM to 38.0 nM in 100% DMSO) into Bio-One 384-well polypropylene conical bottom microplate containing 49 μL of media containing the appropriate serum (50-fold dilution, 2% DMSO, compound concentrations ranging from 200.0 μM and […]). The Apricot liquid handling system was used to transfer 6.2 μL compounds from the intermediate plate into the seeding plate containing 44 μL cells (8-fold dilution spanning concentrations 25.0 μM to […], 0.25% DMSO final), and placed in a humidified tissue culture incubator at 37° C. After 96 hours, 25 μL of Cell Titer-Glo reagent (Promega) was added to each well using an Integra liquid handling system. The plate was protected from light using TopSeal-A (Black) film over the entire plate, added White Bottom seal film on the bottom of the entire plate for a better reading on the Envision, and placed on an IKA plate shaker for at 300 rpm for 10 minutes at room temperature. The plate was read on an EnVision plate reader (Perkin Elmer) using the Ultra Sensitive Luminescence protocol. Data analysis was performed by normalizing the raw luminescence units to an average of the positive control values for staurosporine (100% cell death) and the negative control values for DMSO (0% cell death). An IC50 was calculated using a 4-parameter logistic nonlinear regression model in GraphPad Prism.
On the technique in general: In ATP-based viability assays light output follows the ATP content of the culture.

The target of assay [2] is METTL3/METTL14 (Homo sapiens, UniProt Q86U44). Put plainly: METTL3-14 standard enzyme assay (3H-SAM flashplate scintillation). The conditions noted are these: METTL3/METTL14 2.5 nM, RNA 100 nM, 3H-SAM 100 nM, 30 min. The class given is biochemical. The essentials:
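Radiometric methylation readout: biotinylated RNA substrate UCUGGACUAAA and 3H-SAM, each 100 nM final, reacted 30 min at ambient temperature with 2.5 nM enzyme complex after 5 min compound preincubation (HEPES pH 7.5 buffer, KCl, MgCl2, DTT). Excess unlabelled SAM (15 μM) stopped reactions before streptavidin flashplate capture.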

In assay [3] the target is METTL1/WDR4 (Homo sapiens, UniProt Q9UBP6). Briefly: METTL1 assay (3H-SAM flashplate scintillation). Format: biochemical. The essentials:
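Radiometric methyltransfer by METTL1/WDR4 (6.25 nM f.c., 5 min preincubation) at ambient temperature in HEPES pH 7.5, KCl, MgCl2, DTT; started with 25 nM 3′-biotinylated RNA and 60 nM 3H-SAM, run 20 min, quenched with 15 μM cold SAM. Product captured on streptavidin flashplates (2 h, 25° C), counted by scintillation.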

The target in assay [4] is PRMT5-MEP50 (Homo sapiens, UniProt O14744). Put plainly: PRMT5 assay (3H-SAM flashplate scintillation). The class given is biochemical. The conditions noted are these: PRMT5-MEP50 2.5 nM, histone H4 peptide 100 nM, 3H-SAM 250 nM, 60 min. A digest of the protocol:
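Radiometric methyltransferase read-out: after 60 min reaction, excess unlabelled SAM (15 μM) stops turnover and biotinylated H4 peptide (100 nM) carrying 3H-methyl from 250 nM 3H-SAM is captured on streptavidin flashplates (2 h, 25° C) for scintillation counting. Enzyme, 2.5 nM PRMT5-MEP50, was preincubated 5 min with compound in pH 8.0 Tris buffer with DTT and Tween.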

Each structure is given as a SMILES string. Like-named read-outs stand apart in the source and are kept apart here. Where only a bound is given, the exact number is not on record here.

This note sets out measurements from patent publication US20220372040A1, “METTL3 MODULATORS” (Accent Therapeutics, Inc., priority 2020, published 2022).

For orientation: IC50 means the concentration needed to halve the response being measured.

METTL3/METTL14, sequence (Q86U44 whole entry, species assumed): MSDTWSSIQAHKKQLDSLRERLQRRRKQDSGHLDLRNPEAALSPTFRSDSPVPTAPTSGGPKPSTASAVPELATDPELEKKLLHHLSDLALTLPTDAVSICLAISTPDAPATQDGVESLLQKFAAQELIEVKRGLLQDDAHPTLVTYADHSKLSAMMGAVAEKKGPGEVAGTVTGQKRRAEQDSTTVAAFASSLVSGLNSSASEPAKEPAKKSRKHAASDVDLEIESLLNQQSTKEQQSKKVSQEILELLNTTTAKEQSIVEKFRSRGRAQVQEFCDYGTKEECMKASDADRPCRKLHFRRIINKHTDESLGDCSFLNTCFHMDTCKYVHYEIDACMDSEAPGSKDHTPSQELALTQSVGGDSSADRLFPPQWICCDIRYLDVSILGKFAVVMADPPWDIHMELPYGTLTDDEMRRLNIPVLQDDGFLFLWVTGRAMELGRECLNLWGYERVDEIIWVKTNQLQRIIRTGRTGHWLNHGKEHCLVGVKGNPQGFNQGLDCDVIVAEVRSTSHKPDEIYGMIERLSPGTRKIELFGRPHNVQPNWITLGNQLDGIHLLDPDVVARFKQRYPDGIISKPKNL
METTL3/METTL14, sequence (Q9HCE5 whole entry partner, species assumed): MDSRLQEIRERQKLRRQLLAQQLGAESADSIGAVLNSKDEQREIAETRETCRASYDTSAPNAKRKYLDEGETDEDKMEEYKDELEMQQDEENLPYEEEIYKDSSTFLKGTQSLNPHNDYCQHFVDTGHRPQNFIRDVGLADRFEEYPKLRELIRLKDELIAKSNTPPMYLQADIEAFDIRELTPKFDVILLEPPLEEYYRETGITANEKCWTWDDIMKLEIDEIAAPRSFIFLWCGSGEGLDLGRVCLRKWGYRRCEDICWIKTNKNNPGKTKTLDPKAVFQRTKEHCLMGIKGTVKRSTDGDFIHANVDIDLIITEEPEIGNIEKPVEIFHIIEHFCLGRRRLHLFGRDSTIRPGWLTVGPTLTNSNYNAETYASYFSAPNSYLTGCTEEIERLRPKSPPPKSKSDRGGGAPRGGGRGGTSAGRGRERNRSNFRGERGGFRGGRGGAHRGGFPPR
PRMT5-MEP50, sequence (O14744 whole entry): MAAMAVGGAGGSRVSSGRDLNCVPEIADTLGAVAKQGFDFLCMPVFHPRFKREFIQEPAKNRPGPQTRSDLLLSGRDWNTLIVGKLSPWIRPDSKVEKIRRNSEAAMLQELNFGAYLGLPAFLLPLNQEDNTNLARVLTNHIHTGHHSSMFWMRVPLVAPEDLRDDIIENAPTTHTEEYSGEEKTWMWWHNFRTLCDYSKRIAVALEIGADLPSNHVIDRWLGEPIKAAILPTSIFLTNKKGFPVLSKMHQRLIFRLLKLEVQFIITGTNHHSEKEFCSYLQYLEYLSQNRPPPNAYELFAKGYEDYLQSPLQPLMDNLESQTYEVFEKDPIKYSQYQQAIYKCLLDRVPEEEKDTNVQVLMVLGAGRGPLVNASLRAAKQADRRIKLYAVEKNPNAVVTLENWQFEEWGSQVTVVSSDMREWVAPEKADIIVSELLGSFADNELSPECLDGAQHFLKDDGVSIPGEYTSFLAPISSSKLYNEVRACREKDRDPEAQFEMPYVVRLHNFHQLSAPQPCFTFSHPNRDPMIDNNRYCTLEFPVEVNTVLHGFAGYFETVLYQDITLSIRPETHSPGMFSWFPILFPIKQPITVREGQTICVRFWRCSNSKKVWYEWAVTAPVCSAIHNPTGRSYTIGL
PRMT5-MEP50, sequence (Q9BQA1 whole entry partner): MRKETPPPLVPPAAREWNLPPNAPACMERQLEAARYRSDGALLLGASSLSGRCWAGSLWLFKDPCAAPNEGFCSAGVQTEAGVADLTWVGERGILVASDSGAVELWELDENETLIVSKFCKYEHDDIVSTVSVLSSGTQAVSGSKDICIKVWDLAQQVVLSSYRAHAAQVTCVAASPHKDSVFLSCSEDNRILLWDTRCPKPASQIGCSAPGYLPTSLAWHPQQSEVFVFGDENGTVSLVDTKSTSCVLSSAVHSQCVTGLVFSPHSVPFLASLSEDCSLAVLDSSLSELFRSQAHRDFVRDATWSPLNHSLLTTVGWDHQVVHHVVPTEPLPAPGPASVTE
METTL1/WDR4, sequence (Q9UBP6 whole entry, species assumed): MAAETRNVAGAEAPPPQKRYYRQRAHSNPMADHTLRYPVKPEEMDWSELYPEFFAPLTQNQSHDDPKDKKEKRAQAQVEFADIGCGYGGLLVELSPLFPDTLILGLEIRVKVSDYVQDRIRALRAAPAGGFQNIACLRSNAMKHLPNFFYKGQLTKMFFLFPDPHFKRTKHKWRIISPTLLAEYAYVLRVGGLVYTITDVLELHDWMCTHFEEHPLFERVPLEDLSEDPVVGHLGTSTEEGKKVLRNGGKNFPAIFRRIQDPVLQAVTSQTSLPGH
METTL1/WDR4, sequence (P57081 whole entry partner, species assumed): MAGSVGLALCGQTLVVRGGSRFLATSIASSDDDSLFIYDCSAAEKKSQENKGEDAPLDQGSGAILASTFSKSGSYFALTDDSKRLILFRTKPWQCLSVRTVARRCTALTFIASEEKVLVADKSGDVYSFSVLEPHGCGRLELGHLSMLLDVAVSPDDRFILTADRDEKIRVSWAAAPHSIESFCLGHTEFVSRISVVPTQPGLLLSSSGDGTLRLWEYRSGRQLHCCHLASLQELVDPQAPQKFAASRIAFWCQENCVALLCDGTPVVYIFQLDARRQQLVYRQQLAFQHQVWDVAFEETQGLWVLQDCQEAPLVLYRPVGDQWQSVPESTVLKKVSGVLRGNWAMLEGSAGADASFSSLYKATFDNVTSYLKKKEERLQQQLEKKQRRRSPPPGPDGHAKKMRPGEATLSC

On to `CNc1ccc2ccc(OCc3cncc(-n4cc(C5CCCO5)c5c(N)ncnc54)c3)cc2n1` (centres unmarked) [Compound I-97], for which the IC50 in assay [1] was below 1 µM; in assay [2], below 0.01 µM; in assay [3] it was above 1 µM; in assay [4] it was above 1 µM.
`CC(C)c1cc(N2CCC2)c2ccc(OCc3cncc(-n4ccc5c(N)ncnc54)c3)cc2n1` [Compound I-99]: the IC50 in assay [1] is below 1 µM; in assay [2] it was below 0.01 µM; in assay [3] (METTL1/WDR4 6.25 nM, RNA 25 nM, 3H-SAM 60 nM, 20 min, read-out: METTL1 IC50), above 1 µM; in assay [4], above 1 µM.
Consider `CN(CCO)c1ccc2ccc(OCc3cncc(-n4cc(-c5ccn(C)n5)c5c(N)ncnc54)c3)cc2n1` [Compound I-169], for which the IC50 is below 1 µM in assay [1], below 0.01 µM in assay [2] and above 1 µM in assay [4].
The corresponding values for `CCc1cc(NCCCN(C)C)c2ccc(OCc3cncc(-n4cc(-c5ccn(C)n5)c5c(N)ncnc54)c3)cc2n1` [Compound I-170] are below 1 µM, below 0.01 µM and above 1 µM.
Turning to `CS(=O)(=O)c1cn(-c2cncc(COc3ccc4ccc(N5CCC5)nc4c3)c2)c2ncnc(N)c12` [Compound I-185], the IC50 in assay [1] was 1 to 10 µM; in assay [2], 0.01 to 0.1 µM; in assay [4] it was above 1 µM.
In the case of `Cn1ccc(-c2cn(-c3cncc(COc4ccc5ccc(N6CC(F)C6)nc5c4)c3)c3ncnc(N)c23)n1` [Compound I-192], the IC50 in assay [1] was below 1 µM; in assay [2], below 0.01 µM; in assay [4], above 1 µM.
For the compound `Cn1ccc(-c2cn(-c3cncc(COc4ccc5ccc(N6CC(O)C6)nc5c4)c3)c3ncnc(N)c23)n1` [Compound I-193], the IC50 in assay [1] was 1 to 10 µM; in assay [2], below 0.01 µM; in assay [4] it was above 1 µM.
Take `Cn1ccc(-c2cn(-c3cncc(COc4ccc5ccc(N6CC(F)(F)C6)nc5c4)c3)c3ncnc(N)c23)n1` [Compound I-212]: the IC50 in assay [1] is 1 to 10 µM; in assay [2], below 0.01 µM; in assay [4] it was above 1 µM.
The like results for `Cn1ccc(-c2cn(-c3cncc(COc4ccc5ccc(N6CC(N)C6)nc5c4)c3)c3ncnc(N)c23)n1` [Compound I-213] were, in that order, below 1 µM, below 0.01 µM and above 1 µM.
On to `Cn1ccc(-c2cn(-c3cncc(COc4ccc5ccc(N6CC(=O)C6)nc5c4)c3)c3ncnc(N)c23)n1` [Compound I-217], for which the IC50 in assay [1] is 1 to 10 µM; in assay [2], below 0.01 µM; in assay [4], above 1 µM.
The corresponding values for `CCc1cc(NCCOC)c2ccc(OCc3cncc(-n4cc(COC)c5c(N)ncnc54)c3)cc2n1` [Compound I-231] are below 1 µM, below 0.01 µM and above 1 µM.
As to `CCc1cc(N(C)C)c2ccc(OCc3cncc(-n4ccc5c(N)ncnc54)c3)cc2n1` [Compound I-232], the figures for the IC50 in assay [1], in assay [2] and in assay [4] were below 1 µM, 0.01 to 0.1 µM and above 1 µM, respectively.
The corresponding values for `CC(=O)c1cn(-c2cncc(COc3ccc4ccc(N5CCC5)nc4c3)c2)c2ncnc(N)c12` [Compound I-238] are at least 10 µM, below 0.01 µM and above 1 µM.
Consider `Cc1nc(-c2cn(-c3cncc(COc4ccc5ccc(N6CCC6)nc5c4)c3)c3ncnc(N)c23)co1` [Compound I-239], for which the IC50 in assay [1] was 1 to 10 µM; in assay [2] it was below 0.01 µM; in assay [4] it was above 1 µM.
